# Reference: PMC10294390 (BMC Complementary Medicine and Therapies, 2023)
# Read-outs that look alike come from different tables or passages of the source.
# What was measured:
# [1] = tested on: SW1116 human colon cancer cell line; test: MTT assay, single and schedule-dependent combined treatment; type: cell-based; conditions: Sora 0.25-10 µM alone; for IC80: Homo sapiens, SW 1116, 72 h, read-out: IC-values (µM): IC80
# Description: (§1) The plates were washed, and PPCs [Cur, Kmf, or Que (60 or 120 µM), or Rsv (40 or 80 µM)] were added, followed by incubation at 37 °C for 48 h. For inverted sequential treatment, PPC [Cur, Kmf, or Que (60 or 120 µM), or Rsv (40 or 80 µM)] was added and incubated at 37 °C for 24 h. […] Cell growth was monitored as previously described.
# [2] = tested on: SW837 human rectum cancer cell line; test: as above; type: cell-based; conditions: Sora 0.25-10 µM alone; for IC50: Homo sapiens, SW837, SW837, read-out: IC-values (µM): IC50
# Description: as §1
# SW1116 cells [3] = test: Cell cycle analysis by flow cytometry (PI); type: cell-based, human; conditions: Sora 5 µM, 72 h
# Description: (§2) The cells were subsequently processed using a DNA-prep kit and DNA-Prep EPICS workstation. The cells were treated with a non-ionic detergent to permeabilize the cell membrane, followed by propidium iodide (PI) and RNase, and incubated at 15–20 °C for 15 min. The cells were resuspended in binding buffer at a concentration of 3–10 × 10^6 cells/ml for optimal staining. Fluorescence was measured using a flow cytometer (Beckman Coulter, Inc.), and the percentage of cells in the different phases of the cell cycle was calculated using the Phoenix statistical software package, Advanced DNA cell cycle software (Phoenix Flow System).
# SW837 cells [4] = test: Cell cycle analysis by flow cytometry (PI); type: cell-based, human; conditions: Sora 5 µM, 72 h
# Description: as §2
# SW1116 cells [5] = test: Annexin V-FITC/PI double staining, flow cytometry; type: cell-based, human
# Description: (§3) The levels of cell surface phosphatidylserine were determined to monitor the type of cell death and the kinetics of apoptosis. The CRC cell lines SW1116 and SW837 were seeded (2.5 × 10^5 cells/well) into 24-well plates and incubated in a non-CO2 incubator at 37 °C for 18 h. […] The cells were subsequently washed twice with HBSS and harvested using trypsin. Finally, the cells were double-stained using the Annexin V-FITC-Flous staining kit, according to the manufacturer’s instructions (Roche Diagnostic GmbH). Annexin V-Flous labelling solution containing Annexin V-FITC and PI (100 µl) was added to both the treated and control cell groups and incubated at 15–20 °C for 15 min. The cells (1 × 10^6 cells/ml) were then resuspended in binding buffer, and fluorescence was monitored using flow cytometry (FC500; Beckman Coulter, Inc.).
# SW837 cells [6] = test: Annexin V-FITC/PI double staining, flow cytometry; type: cell-based, human
# Description: as §3
# SW1116 cells [7] = test: DNA fragmentation assay; type: cell-based, human; conditions: Sora 5 µM, PPC 200 and 400 µM, simultaneous combinations, 72 h, Fig. 8A, C
# Description: (§4) Induction of apoptosis was monitored using a DNA fragmentation assay following the manufacturer’s instructions (Apoptotic DNA Ladder Detection kit; Abcam). […] Cells were subsequently incubated at 37 °C for 72 h. The cells were then trypsinized, harvested, washed, pelleted, and lysed using Tris–EDTA (TE) lysis buffer (35 µl). Enzyme A solution (RNase; 5 µl) was added, followed by incubation at 37 °C for 10 min. Enzyme B solution (proteinase; 5 µl) was then added, followed by incubation at 50 °C for 30 min. Ammonium acetate solution (5 µl) and isopropanol (50 µl) were added to each sample and incubated at -20 °C for 10 min. Finally, the DNA was pelleted, washed with 0.5 ml 70% methanol, and dissolved in 30 µl DNA suspension buffer. The extracted DNA samples were loaded onto a 1.2% agarose gel, along with a loading marker (1 kb DNA ladder), and subjected to electrophoresis, using a running buffer containing 1.35 µg/ml ethidium bromide at 5 V/cm for 1 h. Ethidium bromide-stained DNA bands were visualized using transillumination with UV light.
# SW837 cells [8] = test: DNA fragmentation assay; type: cell-based, human; conditions: Sora 5 µM, PPC 200 and 400 µM, sequential combinations, 72 h, Fig. 8B, D
# Description: as §4
# [9] = tested on: SW837 human rectum cancer cell line; test: MTT assay, single and schedule-dependent combined treatment; type: cell-based; conditions: Sora 0.25-10 µM alone
# DLD-1 colon tumor model = tested on: DLD-1 colon tumor model; parameters: method as in PMID 14692718; conditions: cited from earlier work
# [10] = clinical treatment with Sora, cited from earlier work
# [11] = arm a of simultaneous Sora and Cur 72 h
# [12] = arm a of simultaneous Sora and Kmf 72 h
# [13] = arm a of inverted sequential: Que 24 h followed by Sora 48 h
# [14] = arm a of inverted sequential: Rsv 24 h followed by Sora 48 h
# [15] = arm a of sequential: Sora 24 h followed by Que 48 h
# [16] = arm a of sequential: Sora 24 h followed by Rsv 48 h
smiles,measurement,setting,value
"CNC(=O)c1cc(Oc2ccc(NC(=O)Nc3ccc(Cl)c(C(F)(F)F)c3)cc2)ccn1 [Sora, sorafenib]",IC80,[1]; [11],4.86 µM
same,IC80,[1]; [12],4.86 µM
same,IC80,[1]; arm a of simultaneous Sora and Que 72 h,4 µM
same,IC-values (µM): IC70,[1]; arm a of inverted sequential: Cur 24 h followed by Sora 48 h,IC70 = 6.00 µM
same,IC-values (µM): IC60,[1]; arm a of inverted sequential: Kmf 24 h followed by Sora 48 h,IC60 = 4.86 µM
same,IC-values (µM): IC60,[1]; [13],IC60 = 4.86 µM
same,IC-values (µM): IC60,[1]; [14],IC60 = 4.86 µM
same,IC-values (µM): IC60,[1]; arm a of sequential: Sora 24 h followed by Cur 48 h,IC60 = 7.70 µM
same,IC-values (µM): IC60,[1]; arm a of sequential: Sora 24 h followed by Kmf 48 h,IC60 = 0.57 µM
same,IC-values (µM): IC60,[1]; [15],IC60 = 0.57 µM
same,IC-values (µM): IC60,[1]; [16],IC60 = 0.57 µM
same,IC50,[2]; [13],6.86 µM
same,IC50,[2]; [14],6.57 µM
same,IC50,[2]; [15],6.86 µM
same,IC50,[2]; [16],6.86 µM
same,IC-values (µM): IC60,"[2]; SW837, arm a of inverted sequential: Cur 24 h followed by Sora 48 h",IC60 = 8.00 µM
same,IC-values (µM): IC60,"[2]; SW837, arm a of inverted sequential: Kmf 24 h followed by Sora 48 h",IC60 = 7.43 µM
same,IC-values (µM): IC70,"[2]; SW837, arm a of sequential: Sora 24 h followed by Cur 48 h",IC70 = 0.86 µM
same,IC-values (µM): IC60,"[2]; SW837, arm a of sequential: Sora 24 h followed by Kmf 48 h",IC60 = 7.43 µM
same,%G0/G1 (cells in G0/G1 phase),SW1116 cells [3],38.0%
same,%G2/M (cells in G2/M phase),SW1116 cells [3],0.0%
same,%S (cells in S phase),SW1116 cells [3],61.0%
same,%SubG1 (cells in sub G1),SW1116 cells [3],8.4%
same,%G0/G1 (cells in G0/G1 phase),SW837 cells [4],52.0%
same,%G2/M (cells in G2/M phase),SW837 cells [4],12.9%
same,%S (cells in S phase),SW837 cells [4],34.9%
same,%SubG1 (cells in sub G1),SW837 cells [4],1.4%
same,viability at 5 µM,"SW1116 cells [5]; Homo sapiens, SW 1116, 72 h, read-out: B3, percentage of viable cells",14.1%
same,"B1, percentage of necrotic cells","SW1116 cells [5]; SW1116, Sora 5 µM, 72 h",13.6%
same,"B2, percentage of late apoptotic cells","SW1116 cells [5]; SW1116, Sora 5 µM, 72 h",37.3%
same,"B4, percentage of early apoptotic cells","SW1116 cells [5]; SW1116, Sora 5 µM, 72 h",35%
same,viability at 5 µM,"SW837 cells [6]; Homo sapiens, SW837, 72 h, read-out: B3, percentage of viable cells",52.4%
same,"B1, percentage of necrotic cells","SW837 cells [6]; SW837, Sora 5 µM, 72 h",9.6%
same,"B2, percentage of late apoptotic cells","SW837 cells [6]; SW837, Sora 5 µM, 72 h",33.6%
same,"B4, percentage of early apoptotic cells","SW837 cells [6]; SW837, Sora 5 µM, 72 h",4.7%
same,induction of apoptosis as indicated by DNA fragmentation,SW1116 cells [7],marked induction of apoptosis
same,DNA fragmentation,SW837 cells [8],increased levels of DNA fragmentation
same,IC50,"[9]; Homo sapiens, SW837, 72 h, arm a of simultaneous Sora and Que 72 h, read-out: IC-values (µM): IC50",6.57 µM
same,IC-values (µM): IC60,[9]; [11],IC60 = 7.43 µM
same,IC-values (µM): IC60,[9]; [12],IC60 = 7.14 µM
same,IC-values (µM): IC60,[9]; arm a of simultaneous Sora and Rsv 72 h,IC60 = 7.71 µM
same,delay of tumor cell growth,DLD-1 colon tumor model,100%
same,patients in whom side effects demand a dose reduction,[10],> 60%
same,patients with inhibition of treatment due to side effects,[10],6–25%
same,patients developing toxic side effects,"[10]; hand-foot syndrome, diarrhoea, fatigue, rash, weight loss",up to 80%
